Test results: article PMC10850047, “Exploring the impact of PEGylation on pharmacokinetics: a size-dependent effect of polyethylene glycol on prostate-specific membrane antigen inhibitors” (EJNMMI Research, 2024)

Tests used:
PSMA = molecular target: T1, PSMA (Homo sapiens, UniProt Q04609); settings: LNCaP cells, competition with [68Ga]Ga-PSMA-11; cited from earlier work
T1 construct: host or cells: LNCaP

LNCaP cells = assay: Uptake and internalization in LNCaP cells; format: cell-based, human; settings: 120 min incubation, normalized to 10^6 cells
Method: LNCaP prostate cancer cell line obtained from the American Type Culture Collection (ATCC, Manassas, VA) was used for cell affinity studies. […] The supernatant was disposed, and the cell pellet was resuspended in a culture medium, and LNCaP cells (150,000 cells/well) were counted with a hemocytometer and seeded in poly-L-lysine-coated 24-well plates used in cell binding studies. The cells were then allowed to grow at 37 °C for 48 h. PC3-PIP cells provided by Professor Xiaoyuan Chen (Singapore) require additional Puromycin (2 µg/ml) in addition to the appealed culture conditions.

[1] = system: LNCaP tumor-bearing NOD/SCID mice; assay: Biodistribution in LNCaP tumor model; settings: for Blood uptake / Bone uptake / Brain uptake / Heart uptake / Kidney uptake / Liver uptake / Lung uptake / Muscle uptake / Salivary uptake / Small int (small intestine) uptake / Spleen uptake / Stomach uptake / Tumor uptake: mean ± SD (n=5)
[2] = parameters: method as in PMID 36696174; settings: at 2 h; cited from earlier work
PC3-PIP tumors = assay: Micro-SPECT/CT imaging of 177Lu-labeled ligands in PC3-PIP tumor model; format: in vivo; settings: balb/c-nu mice, scans 1-168 h
Method: To perform imaging studies, the male mice bearing LNCaP tumors were injected with the corresponding radioligand (~ 2.5 MBq; 100 μL) via their tail veins. The micro-PET/CT scans (Inveon PET, Siemens) were conducted at 10, 30, 60, and 120 min after injection. The mice were anesthetized and maintained under 2% isoflurane in oxygen at a flow rate of 2 L/min during the 2-h imaging study. First, a 10 min static PET imaging acquisition was carried out, followed by a 10 min CT scan for localization and attenuation correction. Data analysis was performed using Inveon Research Workplace software. For PC3-PIP tumor model, the imaging studies were performed with micro-PET/SPECT/CT (Inliview-3000B, Novel Medical). Data analysis was performed using Nmsoft-Al ws v1.7–1 software.
Balb/c-nu mice carrying PC3-PIP tumors were chosen for the micro-SPECT/CT imaging investigation of [^177Lu]Lu-PP4-WD and [^177Lu]Lu-PP8-WD (see Additional file 1: Figure S8).

T1 sequence (Q04609 whole entry): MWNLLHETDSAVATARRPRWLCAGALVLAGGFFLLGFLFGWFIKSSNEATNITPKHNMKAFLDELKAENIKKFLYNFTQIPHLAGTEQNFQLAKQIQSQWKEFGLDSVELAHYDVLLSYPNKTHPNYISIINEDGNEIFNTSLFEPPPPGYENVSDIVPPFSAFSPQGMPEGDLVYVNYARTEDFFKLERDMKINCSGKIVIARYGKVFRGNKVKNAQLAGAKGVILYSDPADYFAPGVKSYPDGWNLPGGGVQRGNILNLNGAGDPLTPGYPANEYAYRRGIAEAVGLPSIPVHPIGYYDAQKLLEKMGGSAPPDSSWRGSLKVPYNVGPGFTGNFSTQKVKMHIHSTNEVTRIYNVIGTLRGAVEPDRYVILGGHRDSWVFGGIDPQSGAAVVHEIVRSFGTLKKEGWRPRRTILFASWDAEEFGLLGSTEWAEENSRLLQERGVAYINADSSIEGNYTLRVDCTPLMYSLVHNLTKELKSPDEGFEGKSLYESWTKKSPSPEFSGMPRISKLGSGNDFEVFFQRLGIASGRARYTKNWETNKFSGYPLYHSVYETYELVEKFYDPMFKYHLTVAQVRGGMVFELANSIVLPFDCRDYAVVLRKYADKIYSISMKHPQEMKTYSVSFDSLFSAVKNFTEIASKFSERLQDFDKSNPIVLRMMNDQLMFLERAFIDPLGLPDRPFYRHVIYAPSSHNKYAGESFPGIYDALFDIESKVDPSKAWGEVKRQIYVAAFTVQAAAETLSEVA

For O=C([O-])CN1CCN(CC(=O)[O-])CCN(CC(=O)NCCCCCN(CCCC[C@H](NC(=O)N[C@@H](CCC(=O)O)C(=O)O)C(=O)O)C(=O)C2c3ccccc3-c3ccccc32)CCN(CC(=O)[O-])CC1.[68Ga+3] [[^68Ga]Ga-Flu-1], the IC50 (PSMA) is given as 9.62 ± 1.7 nM, the “Internalization in LNCaP cells” value (LNCaP cells) is given as 21.3 ± 0.13% and the “Uptake in LNCaP cells” value (LNCaP cells) is given as 34.57 ± 4.14%. For the same molecule, the Tumor/Blood ratio ([1]; 30 min) was 5.94±1.41, the Tumor/Heart ratio ([1]; 30 min) was 17.48±3.23 and the Tumor/Kidney ratio ([1]; 30 min) was 0.14±0.12. It also gave a Tumor/Liver ratio ([1]; 30 min) of 15.57±2.89, a Tumor/Salivary ratio ([1]; 30 min) of 5.63±1.11 and a Blood uptake ([1]; 30 min p.i.) of 5.53±2.11 %ID/g. It also gave a Bone uptake ([1]; 30 min p.i.) of 0.66±0.22 %ID/g, a Brain uptake ([1]; 30 min p.i.) of 0.18±0.10 %ID/g and a Heart uptake ([1]; 30 min p.i.) of 1.88±0.46 %ID/g. For the same molecule, the Kidney uptake ([1]; 30 min p.i.) was 240.00 ± 34.68 %ID/g, the Liver uptake ([1]; 30 min p.i.) was 2.11±0.52 %ID/g and the Lung uptake ([1]; 30 min p.i.) was 5.77±2.01 %ID/g. For the same molecule, the Muscle uptake ([1]; 30 min p.i.) was 0.93±0.34 %ID/g, the Salivary uptake ([1]; 30 min p.i.) was 5.84±3.65 %ID/g and the “Small int (small intestine) uptake” value ([1]; 30 min p.i.) was 2.52±0.60 %ID/g. For the same molecule, the Spleen uptake ([1]; 30 min p.i.) was 9.45±5.92 %ID/g, the Stomach uptake ([1]; 30 min p.i.) was 1.84±0.31 %ID/g and the Tumor uptake ([1]; 30 min p.i.) was 32.86 ± 12.02 %ID/g. It also gave a Tumor/Blood ratio ([1]; 60 min) of 11.1±1.97, a Tumor/Heart ratio ([1]; 60 min) of 44.13±4.22 and a Tumor/Kidney ratio ([1]; 60 min) of 0.22±0.21. For the same molecule, the Tumor/Liver ratio ([1]; 60 min) was 33.17±3.09, the Tumor/Salivary ratio ([1]; 60 min) was 17.24±3.54 and the Blood uptake ([1]; 60 min p.i.) was 4.69±2.33 %ID/g. The Bone uptake ([1]; 60 min p.i.) was 0.29±0.18 %ID/g, the Brain uptake ([1]; 60 min p.i.) was 0.11±0.10 %ID/g and the Heart uptake ([1]; 60 min p.i.) was 1.18±0.36 %ID/g. It also gave a Kidney uptake ([1]; 60 min p.i.) of 240.01±31.08 %ID/g, a Liver uptake ([1]; 60 min p.i.) of 1.57±0.60 %ID/g and a Lung uptake ([1]; 60 min p.i.) of 3.27±0.84 %ID/g. The Muscle uptake ([1]; 60 min p.i.) was 0.44±0.25 %ID/g, the Salivary uptake ([1]; 60 min p.i.) was 3.02±1.27 %ID/g and the “Small int (small intestine) uptake” value ([1]; 60 min p.i.) was 1.89±1.10 %ID/g. The Spleen uptake ([1]; 60 min p.i.) was 7.25±3.39 %ID/g, the Stomach uptake ([1]; 60 min p.i.) was 0.86±0.11 %ID/g and the Tumor uptake ([1]; 60 min p.i.) was 52.07 ± 14.83 %ID/g. The Tumor/Blood ratio ([1]; 120 min) was 13.07±2.56, the Tumor/Heart ratio ([1]; 120 min) was 69.16±5.69 and the Tumor/Kidney ratio ([1]; 120 min) was 0.31±0.21. For the same molecule, the Tumor/Liver ratio ([1]; 120 min) was 37.14±3.65, the Tumor/Salivary ratio ([1]; 120 min) was 27.47±4.33 and the Blood uptake ([1]; 120 min p.i.) was 3.07±2.7 %ID/g. The Bone uptake ([1]; 120 min p.i.) was 0.34±0.21 %ID/g, the Brain uptake ([1]; 120 min p.i.) was 0.06±0.04 %ID/g and the Heart uptake ([1]; 120 min p.i.) was 0.58±0.28 %ID/g. It also gave a Kidney uptake ([1]; 120 min p.i.) of 127.83 ± 27.94 %ID/g, a Liver uptake ([1]; 120 min p.i.) of 1.08±0.71 %ID/g and a Lung uptake ([1]; 120 min p.i.) of 1.23±0.47 %ID/g. The Muscle uptake ([1]; 120 min p.i.) was 0.19±0.08 %ID/g, the Salivary uptake ([1]; 120 min p.i.) was 1.46±1.05 %ID/g and the “Small int (small intestine) uptake” value ([1]; 120 min p.i.) was 0.46±0.25 %ID/g. The Spleen uptake ([1]; 120 min p.i.) was 2.38±1.75 %ID/g, the Stomach uptake ([1]; 120 min p.i.) was 0.42±0.17 %ID/g and the Tumor uptake ([1]; 120 min p.i.) was 40.11 ± 9.24 %ID/g. For the same molecule, the “Kidney uptake, folds greater than that in the tumor” value [2] was 3 folds.

For O=C([O-])CN1CCN(CC(=O)[O-])CCN(CC(=O)NCCOCCOCCOCCOCCOCCOCCOCCOCCNC(=O)CN(CCCC[C@H](NC(=O)N[C@@H](CCC(=O)O)C(=O)O)C(=O)O)C(=O)C2c3ccccc3-c3ccccc32)CCN(CC(=O)[O-])CC1.[177Lu+3] [[^177Lu]Lu-PP8-WD], the “Tumor-to-background ratio in micro-SPECT/CT” value (PC3-PIP tumors) was “favorable tumor-to-background ratio for up to 168 h”.
